Measured values published in patent US20130217722A1, “NOVEL COMPOUND USEFUL FOR THE TREATMENT OF DEGENERATIVE AND INFLAMMATORY DISEASES” (priority 2012, published 2013).
Several values for one entry are separate records, joined by “and”; a condition that tells them apart may be missing. Equal entries are not always repeated.

What was measured:
JAK1 = target: T1, JAK1 (Homo sapiens, UniProt P23458); experiment: JAK1 Ki determination assay; format: biochemical; conditions: Lineweaver-Burk, varying ATP; read-out: Ki against JAK1
T1 construct: Recombinant human JAK1 (catalytic domain, amino acids 866-1154; catalog number PV4774) was purchased from Invitrogen; purchased Invitrogen PV4774
T1 sequence (P23458 866-1154): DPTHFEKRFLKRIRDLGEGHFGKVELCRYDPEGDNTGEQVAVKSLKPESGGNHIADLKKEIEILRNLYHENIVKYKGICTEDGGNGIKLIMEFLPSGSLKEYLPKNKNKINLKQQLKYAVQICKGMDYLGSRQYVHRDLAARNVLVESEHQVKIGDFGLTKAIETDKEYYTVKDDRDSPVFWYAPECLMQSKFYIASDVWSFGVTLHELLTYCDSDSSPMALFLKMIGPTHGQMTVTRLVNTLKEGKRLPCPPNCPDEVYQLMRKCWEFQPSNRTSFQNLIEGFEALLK
Procedure: For the determination of Ki, different amounts of compound were mixed with the enzyme and the enzymatic reaction was followed as a function of ATP concentration. The Ki was determined by means of double reciprocal plotting of Km vs compound concentration (Lineweaver-Burk plot). 1 ng of JAK1 (Invitrogen, PV4774) is used in the assay. The substrate was 50 nM Ulight-JAK-1 (Tyr1023) Peptide (Perkin Elmer, TRF0121) The reaction is performed in 25 mM MOPS pH 6.8, 0.01%, 2 mM DTT, 5 mM MgCl2 Brij-35 with varying concentrations of ATP and compound. Phosphorylated substrate was measured using an Eu-labeled anti-phosphotyrosine antibody PT66 (Perkin Elmer, AD0068) as described in 1.1.2. Readout was performed on the envision (Perkin Elmer) with excitation at 320 nm and emission followed at 615 nm and 665 nm.

[1] = target: T2, Recombinant human TYK2 catalytic domain (Homo sapiens, UniProt P29597); experiment: TYK2 inhibition assay (polyGT substrate); format: biochemical
T2 construct: Recombinant human TYK2 catalytic domain (amino acids 871-1187; catalog number 08-147) was purchased from Carna biosciences; purchased Carna Biosciences 08-147
T2 sequence (P29597 871-1187): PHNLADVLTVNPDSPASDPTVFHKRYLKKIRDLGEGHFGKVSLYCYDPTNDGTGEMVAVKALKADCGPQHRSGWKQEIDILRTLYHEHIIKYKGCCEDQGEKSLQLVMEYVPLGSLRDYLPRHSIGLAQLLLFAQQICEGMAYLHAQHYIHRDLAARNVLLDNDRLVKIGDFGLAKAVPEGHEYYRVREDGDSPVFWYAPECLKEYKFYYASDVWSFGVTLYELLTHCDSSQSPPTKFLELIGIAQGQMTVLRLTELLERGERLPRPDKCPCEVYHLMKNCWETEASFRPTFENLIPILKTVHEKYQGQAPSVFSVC
Procedure: Recombinant human TYK2 catalytic domain (amino acids 871-1187; catalog number 08-147) was purchased from Carna biosciences. 5 ng of TYK2 was incubated with 12.5 μg polyGT substrate (Sigma catalog number P0275) in kinase reaction buffer (25 mM Hepes pH 7.2, 50 mM NaCl, 0.5 mM EDTA, 1 mM DTT, 5 mM MnCl2, 10 mM MgCl2, 0.1% Brij-35, 0.1 μM non-radioactive ATP, 0.125 μCi ^33P-gamma-ATP (GE Healthcare, catalog number AH9968) final concentrations) with or without 5 μL containing test compound or vehicle (DMSO, 1% final concentration), in a total volume of 25 μL, in a polypropylene 96-well plate (Greiner, V-bottom). After 90 min at 30° C., reactions were stopped by adding 25 μL/well of 150 mM phosphoric acid. […] 40 ^μL/well of Microscint-20 was added, the top of the plates was sealed and readout was performed using the Topcount (Perkin Elmer). Kinase activity was calculated by subtracting counts per min (cpm) obtained in the presence of a positive control inhibitor (10 μM staurosporine) from cpm obtained in the presence of vehicle. The ability of a test compound to inhibit this activity was determined as:
Percentage inhibition=((cpm determined for sample with test compound present−cpm determined for sample with positive control inhibitor) divided by (cpm determined in the presence of vehicle−cpm determined for sample with positive control inhibitor))*100. […]

TYK2 = target: T3, TYK2 (Homo sapiens, UniProt P29597); experiment: TYK2 Ki determination assay (kinase tracer binding); conditions: kinase tracer 236 binding; read-out: Ki against TYK2
T3 construct: purchased Carna Biosciences 09CBS-0983D
T3 sequence (P29597 whole entry): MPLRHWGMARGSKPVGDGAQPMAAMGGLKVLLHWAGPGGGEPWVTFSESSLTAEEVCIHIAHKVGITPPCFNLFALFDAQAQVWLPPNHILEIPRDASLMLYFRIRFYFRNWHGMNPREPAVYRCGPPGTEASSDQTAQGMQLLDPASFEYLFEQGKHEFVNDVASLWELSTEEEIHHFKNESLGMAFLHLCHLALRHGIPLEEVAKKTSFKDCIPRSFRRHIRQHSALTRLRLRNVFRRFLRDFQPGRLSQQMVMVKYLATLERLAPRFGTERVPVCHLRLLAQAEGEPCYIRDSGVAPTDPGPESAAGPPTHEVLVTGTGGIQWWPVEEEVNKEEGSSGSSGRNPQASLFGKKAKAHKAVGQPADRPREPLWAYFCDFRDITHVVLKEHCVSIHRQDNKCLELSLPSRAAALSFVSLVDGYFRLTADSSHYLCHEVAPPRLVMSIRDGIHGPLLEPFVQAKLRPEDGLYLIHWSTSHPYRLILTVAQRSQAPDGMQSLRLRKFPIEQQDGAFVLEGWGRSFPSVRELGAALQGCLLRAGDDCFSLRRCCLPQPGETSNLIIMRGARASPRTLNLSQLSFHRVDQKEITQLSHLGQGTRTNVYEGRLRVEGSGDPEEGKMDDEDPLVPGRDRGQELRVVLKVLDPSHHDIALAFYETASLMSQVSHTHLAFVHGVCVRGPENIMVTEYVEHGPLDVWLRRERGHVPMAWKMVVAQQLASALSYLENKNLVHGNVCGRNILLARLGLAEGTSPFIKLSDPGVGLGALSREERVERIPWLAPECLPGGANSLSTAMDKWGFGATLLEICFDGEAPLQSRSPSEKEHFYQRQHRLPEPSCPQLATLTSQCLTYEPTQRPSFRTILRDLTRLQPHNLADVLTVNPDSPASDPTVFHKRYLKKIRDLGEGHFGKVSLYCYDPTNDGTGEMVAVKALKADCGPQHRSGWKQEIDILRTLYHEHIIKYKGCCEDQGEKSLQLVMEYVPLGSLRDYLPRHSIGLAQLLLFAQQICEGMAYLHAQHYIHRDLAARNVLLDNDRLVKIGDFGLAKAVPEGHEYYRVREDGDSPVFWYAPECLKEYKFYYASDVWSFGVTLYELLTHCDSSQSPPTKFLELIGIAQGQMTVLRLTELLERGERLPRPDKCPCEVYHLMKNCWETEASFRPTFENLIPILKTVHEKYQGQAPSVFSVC
Procedure: TYK2 (Carna Biosciences, 09CBS-0983D) was used at a final concentration of 5 nM. The binding experiment was performed in 50 mM Hepes pH 7.5, 0.01% Brij-35, 10 mM MgCl2, 1 mM EGTA using 50 nM kinase tracer 236 (Invitrogen, PV5592) and 2 nM Eu-anti-GST (Invitrogen, PV5594) with varying compound concentrations. Detection of tracer was performed according to the manufacturers' procedure.

CTLL2 cells = experiment: CTLL2 viability assay (IL2-dependent); format: cell-based; conditions: ATP content
Procedure: The protocol describes the methods to analyse the activity of compounds on the ability to sustain the IL2-dependent viability of CTLL2
Negative control is a DMSO dilution, positive control at 10 μM. Final DMSO concentration is 0.1%.

## CCc1cc(C2=CCN(C(=O)CC#N)CC2)ccc1N(C)c1cc2c(cn1)ncn2C [Compound 1]
JAK1
  Ki: 3.69 nM
[1]
  JAK1 selectivity vs TYK2: 9 fold
TYK2
  Ki: 70.7 nM and 108 nM
CTLL2 cells; 24 h, listed as compound of the invention
  IC50: 2440 nM
CTLL2 cells; Mus musculus, CTLL-2, 24 h
  IC50: 1810 nM
